Experimental data published in patent publication US11020395B2, “Cycloalkyl substituted triazole compounds as agonists of the APJ receptor” (AMGEN INC., priority 2016, dated 2021).

Molecular target: human APJ receptor (Homo sapiens (Human), UniProt P35414)
Test: [35S]GTPγS binding assay on membranes from CHO cells stably expressing human APJ receptor
Format: biochemical
Details: [35S]GTPγS SPA, read-out: Activity hAPJ SPA EC50 IP
In short: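 Membranes from CHO cells stably expressing FLAG-tagged human APJ were incubated with [35S]GTPγS in buffer with optimized GDP, MgCl2 and NaCl, 90 min at RT. EC50 values derived by non-linear regression, averaged over several independent experiments.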

Chain of human APJ receptor (P35414 whole entry): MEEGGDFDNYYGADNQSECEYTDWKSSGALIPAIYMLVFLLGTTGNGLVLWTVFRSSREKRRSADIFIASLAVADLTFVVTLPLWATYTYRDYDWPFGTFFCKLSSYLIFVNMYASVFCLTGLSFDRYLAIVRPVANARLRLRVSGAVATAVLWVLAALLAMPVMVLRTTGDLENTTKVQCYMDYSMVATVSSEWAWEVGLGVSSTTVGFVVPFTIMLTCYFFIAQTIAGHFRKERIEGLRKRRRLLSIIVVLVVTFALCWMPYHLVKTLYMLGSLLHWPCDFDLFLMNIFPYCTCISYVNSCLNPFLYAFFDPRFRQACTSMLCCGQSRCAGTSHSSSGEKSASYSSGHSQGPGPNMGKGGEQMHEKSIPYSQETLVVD

Molecule	EC50 [nM]
COc1ncnc(OC)c1-n1c(NS(=O)(=O)[C@@H](C)[C@@H](OC(C)C)c2cnc(C)cn2)nnc1C1CCC1 [Example 86.0, (1S,2S)-N-(5-cyclobutyl-4-(4,6-dimethoxy-5-pyrimidinyl)-4H-1,2,4-triazol-3-yl)-1-(5-methyl-2-pyrazinyl)-1-(2-propanyloxy)-2-propanesulfonamide]	36
COc1cccc(OC)c1-n1c(NS(=O)(=O)[C@@H](C)[C@H](OC)c2ncc(Cl)cn2)nnc1[C@H]1CC(=O)C1(C)C (single isomer, unassigned) [Example 197.0, (1R,2S)-1-(5-chloropyrimidin-2-yl)-N-(4-(2,6-dimethoxyphenyl)-5-((R)-2,2-dimethyl-3-oxocyclobutyl)-4H-1,2,4-triazol-3-yl)-1-methoxypropane-2-sulfonamide or (1R,2S)-1-(5-chloropyrimidin-2-yl)-N-(4-(2,6-dimethoxyphenyl)-5-((S)-2,2-dimethyl-3-oxocyclobutyl)-4H-1,2,4-triazol-3-yl)-1-methoxypropane-2-sulfonamide]	870
COc1ncnc(OC)c1-n1c(NS(=O)(=O)[C@@H](C)[C@H](OC)c2ncc(Cl)cn2)nnc1[C@H]1C[C@@H](Cl)C1 (single isomer, unassigned) [Example 164.0, (1R,2S)-1-(5-chloropyrimidin-2-yl)-N-(4-(4,6-dimethoxypyrimidin-5-yl)-5-((1s,3R)-3-chlorocyclobutyl)-4H-1,2,4-triazol-3-yl)-1-methoxypropane-2-sulfonamide or (1R,2S)-1-(5-chloropyrimidin-2-yl)-N-(4-(4,6-dimethoxypyrimidin-5-yl)-5-((1r,3S)-3-chlorocyclobutyl)-4H-1,2,4-triazol-3-yl)-1-methoxypropane-2-sulfonamide]	0.54
COc1cccc(OC)c1-n1c(NS(=O)(=O)[C@@H](C)[C@@H](OC(C)C)c2cnc(C)cn2)nnc1C1CCC1 [Example 140.0]	31
COc1cccc(OC)c1-n1c(NS(=O)(=O)[C@@H](C)[C@@H](OC(C)C)c2ncc(C)cn2)nnc1[C@@H]1CCC[C@@H]1OC (single isomer, unassigned) [Example 235.0]	150
COc1ncnc(OC)c1-n1c(NS(=O)(=O)[C@@H](C)[C@H](OC)c2ncc(Cl)cn2)nnc1[C@H]1C[C@H](C)C1 [Example 185.0, (1R,2S)-1-(5-chloro-2-pyrimidinyl)-N-(4-(4,6-dimethoxy-5-pyrimidinyl)-5-(trans-3-methylcyclobutyl)-4H-1,2,4-triazol-3-yl)-1-methoxy-2-propanesulfonamide]	2.7
COc1cccc(OC)c1-n1c(NS(=O)(=O)[C@@H](C)[C@H](OC)c2ncc(Cl)cn2)nnc1[C@H]1CC[C@H](OC)C1 (single isomer, unassigned) [Example 215.0]	66
COc1cccc(OC)c1-n1c(NS(=O)(=O)[C@@H](C)[C@H](OC)c2ncc(Cl)cn2)nnc1[C@@H]1CC[C@H]1C (single isomer, unassigned) [Example 208.0]	2.7
(1S,2S)-N-(4-(2,6-dimethoxyphenyl)-5-(trans-3-methoxycyclobutyl)-4H-1,2,4-triazol-3-yl)-1-(5-methyl-2-pyrimidinyl)-1-(2-propanyloxy)-2-propanesulfonamide or (1S,2S)-N-(4-(2,6-dimethoxyphenyl)-5-(cis-3-methoxycyclobutyl)-4H-1,2,4-triazol-3-yl)-1-(5-methyl-2-pyrimidinyl)-1-(2-propanyloxy)-2-propanesulfonamide [Example 226.0]	21
COc1cccc(OC)c1-n1c(NS(=O)(=O)[C@@H](C)[C@H](OC)c2ncc(Cl)cn2)nnc1C1CC2(CC2)C1 [Example 239.0, (1R,2S)-1-(5-chloro-2-pyrimidinyl)-N-(4-(2,6-dimethoxyphenyl)-5-(spiro[2.3]hexan-5-yl)-4H-1,2,4-triazol-3-yl)-1-methoxy-2-propanesulfonamide]	0.64
COc1cccc(OC)c1-n1c(NS(=O)(=O)[C@@H](C)[C@H](OC)c2ncc(Cl)cn2)nnc1[C@H]1C[C@@](C)(F)C1 (single isomer, unassigned) [Example 198.0, (1R,2S)-1-(5-chloropyrimidin-2-yl)-N-(4-(2,6-dimethoxyphenyl)-5-((1s,3R)-3-fluoro-3-methylcyclobutyl)-4H-1,2,4-triazol-3-yl)-1-methoxypropane-2-sulfonamide or ((1R,2S)-1-(5-chloropyrimidin-2-yl)-N-(4-(2,6-dimethoxyphenyl)-5-((1r,3S)-3-fluoro-3-methylcyclobutyl)-4H-1,2,4-triazol-3-yl)-1-methoxypropane-2-sulfonamide]	3.7
(1R,2S)-1-(5-chloropyrimidin-2-yl)-N-(4-(2,6-dimethoxyphenyl)-5-((R)-3-oxocyclopentyl)-4H-1,2,4-triazol-3-yl)-1-methoxypropane-2-sulfonamide or (1R,2S)-1-(5-chloropyrimidin-2-yl)-N-(4-(2,6-dimethoxyphenyl)-5-((S)-3-oxocyclopentyl)-4H-1,2,4-triazol-3-yl)-1-methoxypropane-2-sulfonamide [Example 225.0]	160
COc1ncnc(OC)c1-n1c(NS(=O)(=O)[C@@H](C)[C@@H](OC(C)C)c2ncc(Cl)cn2)nnc1C1CCC1 [Example 89.0, (1S,2S)-1-(5-chloro-2-pyrimidinyl)-N-(5-cyclobutyl-4-(4,6-dimethoxy-5-pyrimidinyl)-4H-1,2,4-triazol-3-yl)-1-(2-propanyloxy)-2-propanesulfonamide]	0.74
COc1cccc(OC)c1-n1c(NS(=O)(=O)[C@@H](C)[C@H](OC)c2ncc(Cl)cn2)nnc1[C@H]1C[C@@](C)(F)C1 (single isomer, unassigned) [Example 195.0, (1R,2S)-1-(5-chloropyrimidin-2-yl)-N-(4-(2,6-dimethoxyphenyl)-5-((1s,3R)-3-fluoro-3-methylcyclobutyl)-4H-1,2,4-triazol-3-yl)-1-methoxypropane-2-sulfonamide or (1R,2S)-1-(5-chloropyrimidin-2-yl)-N-(4-(2,6-dimethoxyphenyl)-5-((1r,3S)-3-fluoro-3-methylcyclobutyl)-4H-1,2,4-triazol-3-yl)-1-methoxypropane-2-sulfonamide]	2.6
COc1ncnc(OC)c1-n1c(NS(=O)(=O)[C@@H](C)[C@H](OC)c2ncc(Cl)cn2)nnc1[C@H]1C[C@](C)(F)C1 (single isomer, unassigned) [Example 237.0, (1R,2S)-1-(5-chloropyrimidin-2-yl)-N-(4-(4,6-dimethoxypyrimidin-5-yl)-5-((1s,3S)-3-fluoro-3-methylcyclobutyl)-4H-1,2,4-triazol-3-yl)-1-methoxypropane-2-sulfonamide or (1R,2S)-1-(5-chloropyrimidin-2-yl)-N-(4-(4,6-dimethoxypyrimidin-5-yl)-5-((1r,3S)-3-fluoro-3-methylcyclobutyl)-4H-1,2,4-triazol-3-yl)-1-methoxypropane-2-sulfonamide]	30
CO[C@H](c1ncc(Cl)cn1)[C@H](C)S(=O)(=O)Nc1nnc([C@H]2C[C@H](CO)C2)n1C(C)C (single isomer, unassigned) [Example 136.0, (1R,2S)-1-(5-chloro-2-pyrimidinyl)-N-(5-trans-3-(hydroxymethyl)cyclobutyl)-4-(2-propanyl)-4H-1,2,4-triazol-3-yl)-1-methoxy-2-propanesulfonamide or (1R,2S)-1-(5-chloro-2-pyrimidinyl)-N-(5-(cis-3-(hydroxymethyl)cyclobutyl)-4-(2-propanyl)-4H-1,2,4-triazol-3-yl)-1-methoxy-2-propanesulfonamide]	3200
COc1cccc(OC)c1-n1c(NS(=O)(=O)[C@@H](C)[C@H](C)c2ncc(C)cn2)nnc1C1CCCC1 [Example 17.0, (2S,3R)-N-(5-cyclopentyl-4-(2,6-dimethoxyphenyl)-4H-1,2,4-triazol-3-yl)-3-(5-methylpyrimidin-2-yl)butane-2-sulfonamide]	1.1
COc1cccc(OC)c1-n1c(NS(=O)(=O)[C@@H](C)[C@H](OC)c2ncc(Cl)cn2)nnc1[C@H]1C[C@H](F)C1 (single isomer, unassigned) [Example 151.0, (1R,2S)-1-(5-chloropyrimidin-2-yl)-N-(4-(2,6-dimethoxyphenyl)-5-((1r,3S)-3-fluorocyclobutyl)-4H-1,2,4-triazol-3-yl)-1-methoxypropane-2-sulfonamide or (1R,2S)-1-(5-chloropyrimidin-2-yl)-N-(4-(2,6-dimethoxyphenyl)-5-((1r,3R)-3-fluorocyclobutyl)-4H-1,2,4-triazol-3-yl)-1-methoxypropane-2-sulfonamide]	5.4
CO[C@H](c1ncc(Cl)cn1)[C@H](C)S(=O)(=O)Nc1nnc([C@H]2C[C@H](CO)C2)n1C1CC1 (single isomer, unassigned) [Example 135.0, (1R,2S)-1-(5-chloro-2-pyrimidinyl)-N-(4-cyclopropyl-5-(trans-3-(hydroxymethyl)cyclobutyl)-4H-1,2,4-triazol-3-yl)-1-methoxy-2-propanesulfonamide or (1R,2S)-1-(5-chloro-2-pyrimidinyl)-N-(4-cyclopropyl-5-(cis-3-(hydroxymethyl)cyclobutyl)-4H-1,2,4-triazol-3-yl)-1-methoxy-2-propanesulfonamide]	1810
COc1ncnc(OC)c1-n1c(NS(=O)(=O)[C@@H](C)[C@H](C)c2ncc(C)cn2)nnc1C1CC2(CC2)C1 [Example 202.0]	4.2
COc1ncnc(OC)c1-n1c(NS(=O)(=O)[C@@H](C)[C@H](C)c2ncc(C)cn2)nnc1C1CCC1 [Example 4.0, (2S,3R)-N-(5-cyclobutyl-4-(4,6-dimethoxy-5-pyrimidinyl)-4H-1,2,4-triazol-3-yl)-3-(5-methyl-2-pyrimidinyl)-2-butanesulfonamide]	21
